Like-named read-outs stand apart in the source and are kept apart here.
Molecular target: T1, Menin-MLL (Homo sapiens, UniProt O00255)
T1 construct: His-Menin (M1-L615 end); purchased BIORTUS BP9210
T1 sequence (O00255 1-615 isoform O00255-1): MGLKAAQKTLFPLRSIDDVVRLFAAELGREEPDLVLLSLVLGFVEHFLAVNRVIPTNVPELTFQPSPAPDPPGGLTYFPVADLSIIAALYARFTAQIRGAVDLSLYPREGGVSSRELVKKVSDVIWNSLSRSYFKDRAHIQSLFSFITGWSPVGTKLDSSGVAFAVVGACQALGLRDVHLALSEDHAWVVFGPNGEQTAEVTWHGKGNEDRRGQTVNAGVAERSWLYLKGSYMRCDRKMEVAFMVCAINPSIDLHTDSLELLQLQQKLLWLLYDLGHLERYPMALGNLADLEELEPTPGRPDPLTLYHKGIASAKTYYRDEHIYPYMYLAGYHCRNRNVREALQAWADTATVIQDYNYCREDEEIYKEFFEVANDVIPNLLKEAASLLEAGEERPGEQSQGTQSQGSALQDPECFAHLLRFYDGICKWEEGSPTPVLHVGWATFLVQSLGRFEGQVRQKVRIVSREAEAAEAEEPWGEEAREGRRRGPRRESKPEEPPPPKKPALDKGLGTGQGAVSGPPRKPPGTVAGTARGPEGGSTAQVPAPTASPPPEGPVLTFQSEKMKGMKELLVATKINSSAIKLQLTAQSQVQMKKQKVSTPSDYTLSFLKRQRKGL
Experiment: Inhibitory activity against Menin-MLL binding (fluorescence polarization)
Settings: 150 nM His-Menin, 15 nM FITC-MLL, 25°C for 60 min
Outline: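 His-Menin (M1-L615, 150 nM) preincubated with compound 15 min at 25 °C in HEPES pH 7.5, 50 mM NaCl, 1 mM DTT, 0.01% BSA, then 15 nM FITC-MLL4-43 peptide added for 60 min at 25 °C. Fluorescence polarization read; IC50 from 4-parameter logistic fit, duplicates.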

[1] = fluorescence polarization, read-out: Menin-MLL IC50
[2] = Menin-MLL IC50, fluorescence polarization

SMILES | IC50 [1] [nM] | IC50 [2] [nM]
CCN(C(=O)c1cc(F)ccc1-c1cc(N2CCN(C(=O)[C@H]3N[C@@H]4CC[C@H]3C4)CC2)cn2cncc12)C(C)C [Compound 40, 2-(6-{4-[(1R,3S,4S)-2-azabicyclo[2.2.1]heptan-3-carbonyl]piperazin-1-yl}imidazo[1,5-a]pyridin-8-yl)-N-ethyl-5-fluoro-N-(isopropyl)benzamide] | 83 | 
Cc1nc(F)c2c(-c3ccc(F)cc3C(=O)N3CCOC[C@H]3C)cc(C3CN(CC4CCOC4)C3)cn12 (stereo partly shown) [Example 240] | 53.5 | 
CCN(C(=O)c1cc(F)ccc1-c1cc(C2CCN(C[C@H]3CC[C@@H](NS(=O)(=O)CC)CC3)C2)cc2cncn12)C(C)C (mixture of isomers) [Example 26, N-ethyl-5-fluoro-N-isopropyl-2-[7-(1-{[(1s,4s)-4-ethanesulfonamidocyclohexyl]methyl}pyrrolidin-3-yl)imidazo[1,5-a]pyridin-5-yl]benzamide] |  | 44.5
Cc1nc(F)c2c(-c3ccc(F)cc3C(=O)N3CCOC[C@H]3C)cc(C3CN(C[C@H]4CC[C@@H](c5ncno5)CC4)C3)cn12 [Example 207-2, (3R)-4-{5-fluoro-2-[1-fluoro-3-methyl-6-(1-{[(1s,4s)-4-(1,2,4-oxadiazol-5-yl)cyclohexyl]methyl}azacyclobutan-3-yl)imidazo[1,5-a]pyridin-8yl]benzoyl}-3-methylmorpholine] | 269 | 
CCN(C(=O)c1cc(F)ccc1-c1cc(C2CN([C@H](CN3CCN(C(C)=O)CC3)C(C)C)C2)cc2c1cnn2C)C(C)C [Example 417] | 62 | 
CCN(C(=O)c1cc(F)ccc1-c1cc([C@@H]2CCN(C[C@]3(O)CC[C@@H](NS(=O)(=O)CC)CC3)C2)cc2c1cnn2C)C(C)C [Compound 55-2-1, N-ethyl-5-fluoro-2-[1-methyl-6-[(3S)-1-{[(1s,4s)-4-ethanesulfonamido-1-hydroxylcyclohexyl]methyl}pyrrolidin-3-yl]-1H-indazol-4-yl]-N-(isopropyl)benzamide] |  | 343
COCC1CN(CCC[C@@H](C(C)C)N2CC(c3cc(-c4ccc(F)cc4C(=O)N4CCOC[C@H]4C)c4cnn(C)c4c3)C2)C1 [Example 183-1] | 507 | 
CCS(=O)(=O)N[C@H]1CC[C@H](CN2CC(Cc3cc(-c4ccc(F)cc4C(=O)N(CC(F)F)C(C)C)c4cnn(C)c4c3)C2)CC1 [Example 161, N-(2,2-difluoroethyl)-5-fluoro-2-{1-methyl-6-[(1-{[(1r,4r)-4-ethanesulfonamidocyclohexyl]methyl}azacyclobutan-3-yl)methyl]-1H-indazol-4-yl}-N-(isopropyl)benzamide] |  | 33.5
CCN(C(=O)c1cc(F)ccc1-c1cc(C2CCN(C(=O)[C@H]3N[C@@H]4CC[C@H]3C4)C2)cn2cncc12)C(C)C (stereo partly drawn) [Example 38, 2-(6-{1-[(1R,3S,4S)-2-azabicyclo[2.2.1]heptan-3-carbonyl]pyrrolidin-3-yl}imidazo[1,5-a]pyridin-8-yl)-N-ethyl-5-fluoro-N-(isopropyl)benzamide] | 128 | 
CCN(C(=O)c1cc(F)ccc1-c1cc(N2CCN(C(=O)[C@@H]3CCCCN3)CC2)cn2c(C)ncc12)C(C)C [Example 81] |  | 188
CCN(C(=O)c1cc(F)ccc1-c1cc(C2CCN(Cc3ccc(N4CCOC4=O)cc3)C2)cn2cncc12)C(C)C (stereo not shown) [Example 41] | 92 | 
CCN(C(=O)c1cc(F)ccc1-c1cc(C2CCN(C[C@]3(F)CC[C@@H](NS(=O)(=O)CC)CC3)C2)cn2c(C)ncc12)C(C)C (stereo partly shown) [Compound 52, N-ethyl-5-fluoro-2-[3-methyl-6-(1-{[(1s,4s)-4-ethanesulfonamido-1-fluorocyclohexyl]methyl}pyrrolidin-3-yl)imidazo[1,5-a]pyridin-8-yl]-N-(isopropyl)benzamide] |  | 28.5
COCCN(C(=O)c1cc(F)ccc1-c1cc(C2CN(C(CCCN3C[C@H]4C[C@@H]3CO4)C(C)C)C2)cn2c(C)ncc12)C(C)C (stereo partly shown) [Example 467] |  | 5
CCN(C(=O)c1cc(F)ccc1-c1cc(N2CCN(C[C@H]3CC[C@H](NS(=O)(=O)CC)CC3)CC2)cn2c(C)ncc12)C(C)C [Example 84] | 165 | 
CC(=O)N1CCC(CN2CC(Cc3cc(-c4ccc(F)cc4C(=O)N4[C@H](C)COC[C@H]4C)c4c(F)nc(C)n4c3)C2)CC1 [Example 228] | 130 | 
CCN(C(=O)c1cc(F)ccc1-c1cc(N2CCN(CC3CCCCC3)CC2)cn2c(C)ncc12)C(C)C [Compound 58, 2-{6-[4-(cyclohexylmethyl)piperazin-1-yl]-3-methylimidazo[1,5-a]pyridin-8-yl}-N-ethyl-5-fluoro-N-(isopropyl)benzamide] | 124 | 

More lines, in order of falling IC50 [1], values ahead:

IC50 [1] [nM] | SMILES | IC50 [2] [nM]
45 | CCN(C(=O)c1cc(F)ccc1-c1cc(C2CN(C(CN3CCC(OC)CC3)C(C)C)C2)cn2c(C)ncc12)C(C)C (stereo not shown) [Example 444] | 
42 | CCN(C(=O)c1cc(F)ccc1-c1cc(C2CN([C@@H](CCCN3CCN(C(C)=O)CC3)C(C)C)C2)cn2c(C)ncc12)C(C)C [Example 311-1, 2-(6-{1-[(3S)-6-(4-acetylpiperazin-1-yl)-2-methylhexan-3-yl]azacyclobutan-3-yl}-3-methylimidazo[1,5-a]pyridin-8-yl)-N-ethyl-5-fluoro-N-(isopropyl)benzamide] | 
40 | Cc1ncc2c(-c3ccc(F)cc3C(=O)N(CC(F)F)C(C)C)cc(C3CN([C@@H](CCCN4CCN(CCO)CC4)C(C)C)C3)cn12 [Example 459-2, N-(2,2-difluoroethyl)-5-fluoro-2-(6-{1-[(3S)-6-[4-(2-hydroxylethyl)piperazin-1-yl]-2-methylhexan-3-yl]azacyclobutan-3-yl}-3-methyl-imidazo[1,5-a]pyridin-8-yl)-N-(isopropyl)benzamide] | 
39 | CCC(=O)N1CCC([C@H](C)N2CC(c3cc(-c4ccc(F)cc4C(=O)N4CCOC[C@H]4C)c4cnc(C)n4c3)C2)CC1 [Example 319-1, 1-{4-[(1S)-1-[3-(8-{4-fluoro-2-[(3R)-3-methylmorpholin-4-carbonyl]phenyl}-3-methylimidazo[1,5-a]pyridin-6-yl)azacyclobutan-1-yl]ethyl]piperidin-1-yl}propan-1-one] | 
24 | CCOC(=O)N1CCC(CN2CC(c3cc(-c4ccc(F)cc4C(=O)N4CCOC[C@H]4C)c4c(F)nc(C)n4c3)C2)CC1 [Example 270] | 
15 | Cc1nc(F)c2c(-c3ccc(F)cc3C(=O)N3CCOC[C@H]3C)cc(C3CN(C[C@H]4CC[C@@H](c5cnn(C)c5)CC4)C3)cn12 [Example 276-1, (3R)-4-{5-fluoro-2-[1-fluoro-3-methyl-6-(1-{[(1s,4s)-4-(1-methyl-1H-pyrazol-4-yl)cyclohexyl]methyl}azacyclobutan-3-yl)imidazo[1,5-a]pyridin-8yl]benzoyl}-3-methylmorpholine] | 
14 | CCN(C(=O)c1cc(F)ccc1-c1cc(C2CN(C(C[C@@H](O)CO)C(C)C)C2)cn2c(C)ncc12)C(C)C (stereo partly drawn) [Example 438, 2-(6-{1-[(5R)-5,6-dihydroxyl-2-methylhexan-3-yl]azacyclobutan-3-yl}-3-methylimidazo[1,5-a]pyridin-8-yl)-N-ethyl-5-fluoro-N-(isopropyl)benzamide] | 
12 | CCN(C(=O)c1cc(F)ccc1-c1cc(C2CN(C(C[C@H](O)CO)C(C)C)C2)cn2c(C)ncc12)C(C)C (stereo partly drawn) [Example 437, 2-(6-{1-[(5S)-5,6-dihydroxyl-2-methylhexan-3-yl]azacyclobutan-3-yl}-3-methylimidazo[1,5-a]pyridin-8-yl)-N-ethyl-5-fluoro-N-(isopropyl)benzamide] | 
11 | CCN(C(=O)c1cc(F)ccc1-c1cc(C2CN(C(CC[C@@H]3COCCN3CCO)C(C)C)C2)cn2c(C)ncc12)C(C)C (stereo partly drawn) [Example 469, N-ethyl-5-fluoro-2-[6-(1-{1-[(3R)-4-(2-hydroxyethyl)morpholin-3-yl]-4-methylpentan-3-yl}azacyclobutan-3-yl)-3-methylimidazo[1,5-a]pyridin-8-yl]-N-(isopropyl)benzamide] | 
8 | Cc1nc(F)c2c(-c3ccc(F)cc3C(=O)N3CCOC[C@H]3C)cc(C3CN([C@@H](C)C4CCN(C(=O)CC(F)F)CC4)C3)cn12 [Example 304] | 
7.3 | CC(=O)N1CC2CCC(C1)N2CCC[C@H](C(C)C)N1CC(c2cc(-c3ccc(F)cc3C(=O)N3CCOC[C@H]3C)c3cnc(C)n3c2)C1 [Example 348, 1-{8-[(4R)-4-[3-(8-{4-fluoro-2-[(3R)-3-methylmorpholin-4-carbonyl]phenyl}-3-methylimidazo[1,5-a]pyridin-6-yl)azacyclobutan-1-yl]-5-methylhexyl]-3,8-diazabicyclo[3.2.1]oct-3-yl}ethan-1-one] | 
3.8 | CCN(C(=O)c1cc(F)ccc1-c1cc(C2CN([C@H](CCCN3CCN(CCOC)C(=O)C3)C(C)C)C2)cn2c(C)ncc12)C(C)C [Example 496] | 
